Reference: ChEMBL document CHEMBL1201862, “PubChem BioAssay data set” (2004)
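These data come from cells grown in 96-well plates and exposed to compound for 48 hours at five concentrations. Abbreviation: GI50, concentration required for 50% inhibition of growth.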 Activity calls are given as the source filed them. Cut-off read from the data, not from the text of the source: active = GI50 up to about 1.1 µM and inactive = higher.

Key:
Assay in all cases: NCI tumour cell line growth inhibition, 48 h
MOLT-4 = system: MOLT-4
NCI-H226 = system: NCI-H226
T47D = system: T47D
COLO 205 = system: COLO 205
UO-31 = system: UO-31
HCT-116 = system: HCT-116
SK-MEL-28 = system: SK-MEL-28
UACC-257 = system: UACC-257
MDA-MB-231 = system: MDA-MB-231
MDA-N = system: MDA-N
A498 = system: A498
HOP-92 = system: HOP-92
SN12C = system: SN12C
UACC-62 = system: UACC-62
CAKI-1 = system: CAKI-1
ACHN = system: ACHN
NCI-H460 = system: NCI-H460
Hs-578T = system: Hs-578T

Compound	GI50 (MOLT-4)	GI50 (NCI-H226)	GI50 (T47D)	GI50 (COLO 205)	GI50 (UO-31)	GI50 (HCT-116)	GI50 (SK-MEL-28)	GI50 (UACC-257)	GI50 (MDA-MB-231)	GI50 (MDA-N)	GI50 (A498)	GI50 (HOP-92)	GI50 (SN12C)	GI50 (UACC-62)	GI50 (CAKI-1)	GI50 (ACHN)	GI50 (NCI-H460)	GI50 (Hs-578T)
O=[N+]([O-])c1ccc(CSc2nncc3[nH]cnc23)cc1	> 100 µM (inactive)	> 100 µM (inactive)	> 100 µM (inactive)	> 100 µM (inactive)	33.4 µM (inactive)	> 100 µM (inactive)	> 100 µM (inactive)	> 100 µM (inactive)	> 100 µM (inactive)	> 100 µM (inactive)	> 100 µM (inactive)	10.6 µM (inactive)	> 100 µM (inactive)	62.4 µM (inactive)	> 100 µM (inactive)	77.4 µM (inactive)	–	–
c1ccc(CN2CCC(Nc3ccccc3)(c3nnnn3Cc3ccccc3)CC2)cc1	10.1 µM (inactive)	42.7 µM (inactive)	19.5 µM (inactive)	11.6 µM (inactive)	6.12 µM (inactive)	20.1 µM (inactive)	17.2 µM (inactive)	14.1 µM (inactive)	27.2 µM (inactive)	–	17.2 µM (inactive)	5.37 µM (inactive)	39.7 µM (inactive)	23.6 µM (inactive)	–	35 µM (inactive)	15.7 µM (inactive)	24.2 µM (inactive)
CCC(CCCN)Nc1cc(OC)cc2cccnc12 (stereo not drawn)	> 10 µM (inactive)	> 100 µM (inactive)	–	33.6 µM (inactive)	70 µM (inactive)	> 100 µM (inactive)	> 100 µM (inactive)	15.5 µM (inactive)	53.5 µM (inactive)	> 100 µM (inactive)	> 100 µM (inactive)	> 100 µM (inactive)	> 100 µM (inactive)	46.3 µM (inactive)	> 100 µM (inactive)	> 100 µM (inactive)	> 100 µM (inactive)	> 100 µM (inactive)
O=[N+]([O-])c1cc2ccc1OCc1cccc(n1)COc1ccc(cc1[N+](=O)[O-])/C=N\CCCCCCCC/N=C\2	> 100 µM (inactive)	> 100 µM (inactive)	–	> 100 µM (inactive)	> 100 µM (inactive)	> 100 µM (inactive)	> 100 µM (inactive)	> 100 µM (inactive)	> 100 µM (inactive)	> 100 µM (inactive)	> 100 µM (inactive)	> 100 µM (inactive)	> 100 µM (inactive)	> 100 µM (inactive)	> 100 µM (inactive)	> 100 µM (inactive)	> 100 µM (inactive)	> 100 µM (inactive)
O=c1[nH]c2ccc([N+](=O)[O-])c(Cl)c2c2ccccc12	0.91 µM (active)	11.5 µM (inactive)	19.8 µM (inactive)	5.18 µM (inactive)	9.33 µM (inactive)	0.313 µM (active)	11 µM (inactive)	2.42 µM (inactive)	8.07 µM (inactive)	–	13.2 µM (inactive)	–	2.58 µM (inactive)	3.79 µM (inactive)	2.41 µM (inactive)	4.48 µM (inactive)	1.87 µM (inactive)	3.86 µM (inactive)
N#CC(=S)Nc1cccc(Cl)c1	34 µM (inactive)	23.9 µM (inactive)	27.2 µM (inactive)	36.1 µM (inactive)	–	55.3 µM (inactive)	44.7 µM (inactive)	37.2 µM (inactive)	38.4 µM (inactive)	44.3 µM (inactive)	34.1 µM (inactive)	35.6 µM (inactive)	44.1 µM (inactive)	19 µM (inactive)	41.9 µM (inactive)	26.2 µM (inactive)	19.9 µM (inactive)	–
COc1cc2c(cc1OCCCCOc1cc3nc(C)nc(Cl)c3cc1OC)N=C[C@@H]1CCCN1C2=O	1.7 µM (inactive)	1.85 µM (inactive)	15.3 µM (inactive)	19.1 µM (inactive)	1.88 µM (inactive)	2.21 µM (inactive)	2.34 µM (inactive)	2.29 µM (inactive)	1.25 µM (inactive)	–	–	2.02 µM (inactive)	1.93 µM (inactive)	1.48 µM (inactive)	2.38 µM (inactive)	1.94 µM (inactive)	3.4 µM (inactive)	1.99 µM (inactive)
C=C1C(=O)[C@@]23CC[C@@H]4[C@@]5(C)CCC[C@@]4(OC5=O)C2(C)CC[C@]1(OC)C3 (stereo partly drawn)	0.238 µM (active)	–	1.39 µM (inactive)	2.38 µM (inactive)	1.79 µM (inactive)	0.423 µM (active)	1.65 µM (inactive)	1.51 µM (inactive)	–	0.52 µM (active)	–	–	1.73 µM (inactive)	1.35 µM (inactive)	1.75 µM (inactive)	1.77 µM (inactive)	1.93 µM (inactive)	1.96 µM (inactive)
